The target in experiment [1] is T1, Tau (recombinant human tau, Tau441wt) (Homo sapiens, UniProt P10636).
T1 construct: gene MAPT; full-length Tau441, pET-3d, E. coli BL21(DE3)pLysS; anion exchange and phosphocellulose chromatography
Briefly: heparin-induced aggregation, ultracentrifugation sedimentation assay. The experiment is classed as biochemical. The settings on record: 20 µM PHOX15 (significant, p = 0.0494), 24 h, 37 °C, pH 7.4, 200 µg/ml heparin, 1% DMSO.

Experiment [2] deals with T2, PAGFP-Tau / PAGFP-TauΔK280 (Homo sapiens, UniProt P10636, DEL125-375/DEL395-460/DEL597-597).
T2 construct: gene MAPT
T2 sequence (P10636 with tags, fused parts or gaps DEL125-375/DEL395-460/DEL597-597): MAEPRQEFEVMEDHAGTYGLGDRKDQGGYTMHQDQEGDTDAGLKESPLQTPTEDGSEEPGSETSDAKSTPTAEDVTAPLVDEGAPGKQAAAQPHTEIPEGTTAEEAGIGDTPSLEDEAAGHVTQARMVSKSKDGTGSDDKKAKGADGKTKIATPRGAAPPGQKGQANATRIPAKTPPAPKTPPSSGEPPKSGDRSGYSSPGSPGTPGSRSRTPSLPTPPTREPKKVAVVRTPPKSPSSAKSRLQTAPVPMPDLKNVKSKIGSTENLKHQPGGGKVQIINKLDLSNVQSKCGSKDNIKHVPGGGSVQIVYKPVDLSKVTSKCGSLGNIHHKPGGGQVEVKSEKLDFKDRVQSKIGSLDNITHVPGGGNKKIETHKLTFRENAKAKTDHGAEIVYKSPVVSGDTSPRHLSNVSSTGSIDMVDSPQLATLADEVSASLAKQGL
Kind of experiment: FDAP live-cell imaging, effective diffusion constant of tau (restored microtubule binding). The experiment is classed as cell-based. An excerpt:
FDAP live-cell imaging, effective diffusion constant of tau (restored microtubule binding) on PAGFP-Tau / PAGFP-TauΔK280 | IC50 value of the activity of PHOX15 to restore microtubule binding of TauΔK280, obtaining

The target in experiment [3] is T3, Tau (recombinant human tau, Tau441wt) (Homo sapiens, UniProt P10636, DEL125-375/DEL395-460/DEL597-597).
T3 construct: gene MAPT; full-length Tau441, pET-3d, E. coli BL21(DE3)pLysS; anion exchange and phosphocellulose chromatography
T3 sequence (P10636 with tags, fused parts or gaps DEL125-375/DEL395-460/DEL597-597): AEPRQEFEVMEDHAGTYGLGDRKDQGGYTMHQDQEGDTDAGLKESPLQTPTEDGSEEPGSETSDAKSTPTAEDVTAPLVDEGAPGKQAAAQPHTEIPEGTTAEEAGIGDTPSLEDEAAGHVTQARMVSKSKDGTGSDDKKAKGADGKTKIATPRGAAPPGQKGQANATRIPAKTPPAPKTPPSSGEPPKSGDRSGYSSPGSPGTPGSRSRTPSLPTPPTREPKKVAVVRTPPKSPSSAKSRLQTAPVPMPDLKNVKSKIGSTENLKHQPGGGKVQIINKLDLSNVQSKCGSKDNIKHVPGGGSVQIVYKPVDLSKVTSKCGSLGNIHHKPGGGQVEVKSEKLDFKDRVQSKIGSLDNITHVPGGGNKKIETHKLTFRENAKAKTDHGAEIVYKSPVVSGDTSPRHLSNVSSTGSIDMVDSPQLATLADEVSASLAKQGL
Briefly: heparin-induced aggregation, ultracentrifugation sedimentation assay. Format: biochemical. To be noted: 2-20 µM PHOX15, 24 h, 37 °C, pH 7.4, 200 µg/ml heparin, 1% DMSO.

SMILES strings stand for the structures.

T1 sequence (P10636 1-441 isoform P10636-8): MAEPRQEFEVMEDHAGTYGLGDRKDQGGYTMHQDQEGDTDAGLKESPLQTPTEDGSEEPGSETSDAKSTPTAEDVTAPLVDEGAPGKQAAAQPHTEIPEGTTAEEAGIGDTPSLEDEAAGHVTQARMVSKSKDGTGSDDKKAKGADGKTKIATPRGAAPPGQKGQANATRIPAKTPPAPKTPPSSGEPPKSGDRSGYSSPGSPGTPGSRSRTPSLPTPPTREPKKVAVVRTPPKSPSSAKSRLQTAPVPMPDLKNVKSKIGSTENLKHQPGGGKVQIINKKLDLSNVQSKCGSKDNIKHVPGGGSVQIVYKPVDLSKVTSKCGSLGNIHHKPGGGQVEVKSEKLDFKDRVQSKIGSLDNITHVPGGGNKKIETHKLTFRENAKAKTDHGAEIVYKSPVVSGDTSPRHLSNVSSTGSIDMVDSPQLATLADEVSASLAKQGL

As for `O=C(Nc1ccccc1)c1coc(-c2ccc(O)cc2O)n1` [PHOX15, 2-(2,4-dihydroxyphenyl)-N-phenyloxazole-4-carboxamide], in experiment [1], the “fraction of aggregated tau” value is “PHOX15 decreases aggregation of recombinant TauΔK280 and human wild-type tau (Tau) in vitro”. This compound also displayed a half-inhibitory concentration (IC50) in experiment [2] of 14 µM. In addition, the “% reduction of filament formation” value in experiment [3] is ~ 20%.

Broadly, the IC50 is the concentration at which inhibition is half-maximal. A low value points to greater potency in that assay.

These data come from article PMC10891143, “Quantitative live cell imaging of a tauopathy model enables the identification of a polypharmacological drug candidate that restores physiological microtubule interaction” (Nature Communications, 2024).
